Legend:
[1] = molecular target: BACE1 (Homo sapiens (Human), UniProt P56817); assay: Cellular Aβ-lowering assay (Aβ40 ELISA, HEK293 cells expressing human APP695); assay type: cell-based; conditions: HEK293 cells stably transfected with human APP695; 18-20 hrs incubation; Aβ40 in supernatant; read-out: BACE1 cell act. Aβ40 IC50
Experimental: Cellular Aβ-Lowering Assay:
Human HEK293 cells which are stably transfected with a vector expressing a cDNA of the human APP wt gene (APP695) were used to assess the potency of the compounds in a cellular assay. The cells were seeded in 96-well microtiter plates in cell culture medium (Iscove, plus 10% (v/v) fetal bovine serum, glutamine, penicillin/streptomycin) to about 80% confluence and the compounds were added at a 10× concentration in 1/10 volume of medium without FCS containing 8% DMSO (final concentration of DMSO was kept at 0.8% v/v). After 18-20 hrs incubation at 37° C. and 5% CO2 in a humidified incubator the culture supernatant was harvested for the determination of […] concentrations. 96well ELISA plates (e.g., Nunc MaxiSorb) were coated with monoclonal antibody which specifically recognize the C-terminal end of […] (Brockhaus et al., NeuroReport 9, 1481-1486; 1998). After blocking of non-specific binding sites with e.g. 1% BSA and washing, the culture supernatants were added in suitable dilutions together with a horseradish peroxidase-coupled Aβ detection antibody (e.g., antibody 4G8, Senetek, Maryland Heights, Mo.) and incubated for 5 to 7 hrs. Subsequently the wells of the microtiter plate were washed extensively with Tris-buffered saline containing 0.05% Tween 20 and the assay was developed with tetramethylbenzidine/H2O2 in citric acid buffer. After stopping the reaction with one volume 1 N H2SO4 the reaction was measured in an ELISA reader at 450 nm wavelength. The concentrations of Aβ in the culture supernatants were calculated from a standard curve obtained with known amounts of pure Aβ peptide.

[2] = molecular target: BACE2 (Rattus norvegicus (Rat), UniProt Q6IE75); assay: Assay for BACE inhibition by measuring cellular TMEM27 cleavage (INS-TMEM27 cells, ELISA); assay type: cell-based; conditions: INS-TMEM27 (INS1e-derived) cells; shed TMEM27 in supernatant; read-out: BACE2 cell act. IC50
Text: Assay for BACE Inhibition by Measuring Cellular TMEM27 Cleavage:
The assay uses the principle of inhibition of human TMEM27 cleavage by endogenous cellular BACE2 in the Ins1e rat cell line and shedding from the cell surface into the culture medium, followed by detection in an ELISA assay. Inhibition of BACE2 prevents the cleavage and shedding in a dose-dependent manner
The stable cell line “INS-TMEM27” represents an INS1e-derived cell line with inducible expression (using the TetOn system) of full-length hTMEM27 in a doxycycline-dependent manner. The cells are cultured throughout the experiment in RPMI1640 +Glutamax (Invitrogen) Penicillin/Streptomycin, 10% Fetal bovine serum, […], […], 100 micrograms/ml G418 and 100 microgram/ml hygromycin and are grown inadherent culture at 37° C. in a standard CO2 cell culture incubator.
INS-TMEM27 cells are seeded in 96-well plates. After 2 days in culture, BACE2 inhibitor is added in a range of concentrations as required by the assay and after a further two hours, doxycycline is added to a final concentration of 500 ng/ml. The cells are incubated for a further 46 hours and the supernatant harvested for detection of shed TMEM27.
An ELISA assay (using a pair of mouse anti-human-TMEM27 antibodies, raised against the extracellular domain of TMEM27) is used for detection of TMEM27 in the culture medium. An EC50 for BACE2 inhibition is calculated using the ELISA readout for each inhibitor concentration with standard curve-fitting software such as XLFit for the Excel spreadsheet program.

BACE1, sequence (P56817 46-501): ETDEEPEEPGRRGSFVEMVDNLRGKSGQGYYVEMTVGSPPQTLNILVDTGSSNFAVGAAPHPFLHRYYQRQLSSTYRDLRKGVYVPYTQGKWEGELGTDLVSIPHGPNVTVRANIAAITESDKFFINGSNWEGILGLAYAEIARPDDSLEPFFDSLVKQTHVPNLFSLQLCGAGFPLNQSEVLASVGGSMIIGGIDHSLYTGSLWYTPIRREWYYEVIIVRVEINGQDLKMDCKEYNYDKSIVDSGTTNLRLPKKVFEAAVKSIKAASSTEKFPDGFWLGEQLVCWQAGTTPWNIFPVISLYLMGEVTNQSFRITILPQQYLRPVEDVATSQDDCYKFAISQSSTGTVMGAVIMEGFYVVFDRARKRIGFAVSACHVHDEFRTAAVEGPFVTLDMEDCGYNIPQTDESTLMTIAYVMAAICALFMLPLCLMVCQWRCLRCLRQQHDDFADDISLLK
BACE2, sequence (Q6IE75 63-514): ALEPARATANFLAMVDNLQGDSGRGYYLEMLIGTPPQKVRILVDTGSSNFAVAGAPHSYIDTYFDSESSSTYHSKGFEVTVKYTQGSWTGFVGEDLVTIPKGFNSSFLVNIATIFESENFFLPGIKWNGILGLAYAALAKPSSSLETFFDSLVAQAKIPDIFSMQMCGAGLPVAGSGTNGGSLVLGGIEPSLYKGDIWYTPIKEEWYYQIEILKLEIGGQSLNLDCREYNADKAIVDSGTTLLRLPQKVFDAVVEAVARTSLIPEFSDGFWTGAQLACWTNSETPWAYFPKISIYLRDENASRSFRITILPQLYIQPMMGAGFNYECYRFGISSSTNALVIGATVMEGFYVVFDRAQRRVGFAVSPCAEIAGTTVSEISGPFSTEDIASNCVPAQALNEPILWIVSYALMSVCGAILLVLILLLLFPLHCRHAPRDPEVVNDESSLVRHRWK

Compound	IC50 [1]	IC50 [2]
CC(C)CCNc1ccc(F)c([C@]2(C)COCC(N)=N2)c1 [Example 6, (R)-5-(2-fluoro-5-(isopentylamino)phenyl)-5-methyl-5,6-dihydro-2H-1,4-oxazin-3-amine]	1360 nM	605 nM
C[C@]1(c2cc(NC3CCc4cc(Cl)ccc43)ccc2F)COCC(N)=N1 (stereo partly drawn) [Example 35, (S)-5-[5-(5-Chloro-indan-1-ylamino)-2-fluoro-phenyl]-5-methyl-5,6-dihydro-2H-[1,4]oxazin-3-ylamine]	100 nM	732 nM
COc1cnc2c(Nc3cccc(C4(C)COCC(N)=N4)c3)cccc2c1 (centres unmarked) [Example 37, [3-(5-Amino-3-methyl-3,6-dihydro-2H-[1,4]oxazin-3-yl)-phenyl]-(3-methoxy-quinolin-8-yl)-amine]	–	120 nM
C[C@@]1(c2cc(NC3CCCC3)ccc2F)COCC(N)=N1 [Example 15, (R)-5-(5-(cyclopentylamino)-2-fluorophenyl)-5-methyl-5,6-dihydro-2H-1,4-oxazin-3-amine]	120 nM	170 nM
C[C@@]1(c2cc(NC[C@H]3CCCO3)ccc2F)COCC(N)=N1 [Example 22, (R)-5-(2-fluoro-5-(((R)-tetrahydrofuran-2-yl)methylamino)phenyl)-5-methyl-5,6-dihydro-2H-1,4-oxazin-3-amine]	1110 nM	2430 nM
C[C@@]1(c2cc(Nc3ccccc3OCC(F)(F)F)ccc2F)COCC(N)=N1 [Example 42, (R)-5-{2-Fluoro-5-[2-(2,2,2-trifluoro-ethoxy)-phenylamino]-phenyl}-5-methyl-5,6-dihydro-2H-[1,4]oxazin-3-ylamine]	5200 nM	–
CC1(c2cccc(NC3CCc4cc(Cl)ccc43)c2)COCC(N)=N1 (centres unmarked) [Example 39, 5-[3-(5-Chloro-indan-1-ylamino)-phenyl]-5-methyl-5,6-dihydro-2H-[1,4]oxazin-3-ylamine]	180 nM	–
CC(C)C(Nc1ccc(F)c([C@]2(C)COCC(N)=N2)c1)c1ccc(Cl)cn1 (stereo partly drawn) [Example 23, (R)-5-{5-[1-(5-Chloro-pyridin-2-yl)-2-methyl-propylamino]-2-fluoro-phenyl}-5-methyl-5,6-dihydro-2H-[1,4]oxazin-3-ylamine]	3710 nM	1660 nM
C[C@@]1(c2cc(Nc3cc(F)cc4cc(OCC5CC5)cnc34)ccc2F)COCC(N)=N1 [Example 31, [3-((R)-5-Amino-3-methyl-3,6-dihydro-2H-[1,4]oxazin-3-yl)-4-fluoro-phenyl]-(3-cyclopropylmethoxy-6-fluoro-quinolin-8-yl)-amine]	6900 nM	–
C[C@@]1(c2cc(NC3CCOC3)ccc2F)COCC(N)=N1 (stereo partly drawn) [Example 18, (R)-5-[2-Fluoro-5-(tetrahydro-furan-3-ylamino)-phenyl]-5-methyl-5,6-dihydro-2H-[1,4]oxazin-3-ylamine]	320 nM	3390 nM
C[C@@]1(c2cc(NCC(F)(F)F)ccc2F)COCC(N)=N1 [Example 9, (R)-5-(2-fluoro-5-(2,2,2-trifluoroethylamino)phenyl)-5-methyl-5,6-dihydro-2H-1,4-oxazin-3-amine]	350 nM	–
CC1(c2cccc(Nc3ccccc3OC(F)F)c2)COCC(N)=N1 (centres unmarked) [Example 44, 5-[3-(2-Difluoromethoxy-phenylamino)-phenyl]-5-methyl-5,6-dihydro-2H-[1,4]oxazin-3-ylamine]	890 nM	–
C[C@@]1(c2cc(N[C@H]3CCC[C@@H]3O)ccc2F)COCC(N)=N1 [Example 19, (1S,2S)-2-(3-((R)-5-amino-3-methyl-3,6-dihydro-2H-1,4-oxazin-3-yl)-4-fluorophenylamino)cyclopentanol]	1210 nM	3420 nM
C[C@@]1(c2cc(NCC3CC3)ccc2F)COCC(N)=N1 [Example 21, (R)-5-(5-(cyclopropylmethylamino)-2-fluorophenyl)-5-methyl-5,6-dihydro-2H-1,4-oxazin-3-amine]	130 nM	279 nM
CC1(c2cccc(Nc3cccc4oc(C5CC5)nc34)c2)COCC(N)=N1 (centres unmarked) [Example 46, [3-(5-Amino-3-methyl-3,6-dihydro-2H-[1,4]oxazin-3-yl)-phenyl]-(2-cyclopropyl-benzooxazol-4-yl)-amine]	–	300 nM
C[C@@]1(c2cc(NC3CCc4cc(Cl)cnc43)ccc2F)COCC(N)=N1 (stereo partly drawn) [Example 40, [3-((R)-5-Amino-3-methyl-3,6-dihydro-2H-[1,4]oxazin-3-yl)-4-fluoro-phenyl]-(3-chloro-6,7-dihydro-5H-[1]pyrindin-7-yl)-amine]	320 nM	1100 nM
C[C@@]1(c2cc(NC3CCC3)ccc2F)COCC(N)=N1 [Example 14, (R)-5-(5-Cyclobutylamino-2-fluoro-phenyl)-5-methyl-5,6-dihydro-2H-[1,4]oxazin-3-ylamine]	260 nM	1170 nM
CSCCCNc1ccc(F)c([C@]2(C)COCC(N)=N2)c1 [Example 13, (R)-5-(2-fluoro-5-(3-(methylthio)propylamino)phenyl)-5-methyl-5,6-dihydro-2H-1,4-oxazin-3-amine]	310 nM	–
C[C@@]1(c2cc(Nc3cccc4cc(OCCF)cnc34)ccc2F)COCC(N)=N1 [Example 30, [3-((R)-5-Amino-3-methyl-3,6-dihydro-2H-[1,4]oxazin-3-yl)-4-fluoro-phenyl]-[3-(2-fluoro-ethoxy)-quinolin-8-yl]-amine]	4770 nM	–
C[C@@]1(c2cc(NCCC(F)(F)F)ccc2F)COCC(N)=N1 [Example 12, (R)-5-(2-fluoro-5-(3,3,3-trifluoropropylamino)phenyl)-5-methyl-5,6-dihydro-2H-1,4-oxazin-3-amine]	1090 nM	2900 nM
C[C@@]1(c2cc(Nc3cc(F)cc4cc(Cl)cnc34)ccc2F)COCC(N)=N1 [Example 28, [3-((R)-5-Amino-3-methyl-3,6-dihydro-2H-[1,4]oxazin-3-yl)-4-fluoro-phenyl]-(3-chloro-6-fluoro-quinolin-8-yl)-amine]	44 nM	–
C[C@@]1(c2cc(NCC(F)F)ccc2F)COCC(N)=N1 [Example 10, (R)-5-[5-(2,2-Difluoro-ethylamino)-2-fluoro-phenyl]-5-methyl-5,6-dihydro-2H-[1,4]oxazin-3-ylamine]	410 nM	–
C[C@@]1(c2cc(Nc3cccc4cc(Cl)cnc34)ccc2F)COCC(N)=N1 [Example 26, [3-((R)-5-Amino-3-methyl-3,6-dihydro-2H-[1,4]oxazin-3-yl)-4-fluoro-phenyl]-(3-chloro-quinolin-8-yl)-amine]	160 nM	77 nM
CC1(c2cccc(NCc3ccc(Cl)cc3)c2)COCC(N)=N1 (centres unmarked) [Example 2, 5-[3-(4-Chloro-benzylamino)-phenyl]-5-methyl-5,6-dihydro-2H-[1,4]oxazin-3-ylamine]	450 nM	–
C[C@@]1(c2cc(NCc3nn(C(F)F)cc3Cl)ccc2F)COCC(N)=N1 [Example 45, (R)-5-{5-[(4-Chloro-1-difluoromethyl-1H-pyrazol-3-ylmethyl)-amino]-2-fluoro-phenyl}-5-methyl-5,6-dihydro-2H-[1,4]oxazin-3-ylamine]	17 nM	–
C[C@@]1(c2cc(Nc3cccc4cc(OCC(F)(F)F)cnc34)ccc2F)COCC(N)=N1 [Example 32, [3-((R)-5-Amino-3-methyl-3,6-dihydro-2H-[1,4]oxazin-3-yl)-4-fluoro-phenyl]-[3-(2,2,2-trifluoro-ethoxy)-quinolin-8-yl]-amine]	2360 nM	–
(R)-5-{2-Fluoro-5-[2-(2-fluoro-ethoxy)-phenylamino]-phenyl}-5-methyl-5,6-dihydro-2H-[1,4]oxazin-3-ylamine [Example 43]	3200 nM	–
CC(C)C(C)Nc1ccc(F)c([C@]2(C)COCC(N)=N2)c1 (stereo partly drawn) [Example 8, (5R)-5-(2-fluoro-5-(3-methylbutan-2-ylamino)phenyl)-5-methyl-5,6-dihydro-2H-1,4-oxazin-3-amine]	2190 nM	–
CCCCNc1ccc(F)c([C@]2(C)COCC(N)=N2)c1 [Example 5, (R)-5-(5-Butylamino-2-fluoro-phenyl)-5-methyl-5,6-dihydro-2H-[1,4]oxazin-3-ylamine]	340 nM	–

— patent US9242943B2, “1,4 oxazines as BACE1 and/or BACE2 inhibitors” (SIENA BIOTECH S.P.A., priority 2011, dated 2016)
